PubChem BioAssay (NCI)
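At the GI50, growth is halved. At the TGI there is no net growth.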

How the values were obtained:
Experiment in all cases: NCI-60 cell line screen, 384-well format
[1] = system: OVCAR-5 ovarian
[2] = system: SF-539 CNS
[3] = system: SK-MEL-5 melanoma
[4] = system: MDA-MB-435 melanoma
[5] = system: LOX IMVI melanoma
[6] = system: UO-31 renal
[7] = system: OVCAR-3 ovarian
[8] = system: NCI-H322M lung
[9] = system: RXF 393 renal
[10] = system: NCI-H460 NSCLC
[11] = system: MALME-3M melanoma
[12] = system: SF-268 CNS
[13] = system: IGROV1 ovarian
[14] = system: HT29 colon
[15] = system: K-562 leukemia
[16] = system: COLO 205 colon
[17] = system: OVCAR-8 ovarian
[18] = system: SK-MEL-2 melanoma
[19] = system: OVCAR-4 ovarian
[20] = system: SF-295 CNS
[21] = system: MOLT-4 leukemia
[22] = system: HCT-116 colon
[23] = system: SNB-19 CNS
[24] = system: SK-OV-3 ovarian
[25] = system: HCT-15 colon
[26] = system: DU-145 prostate
[27] = system: MDA-MB-231 breast
[28] = system: T-47D breast
[29] = system: NCI/ADR-RES ovarian
[30] = system: SW-620 colon
[31] = system: SR leukemia
[32] = system: HOP-62 NSCLC
[33] = system: NCI-H522 lung
[34] = system: UACC-257 melanoma
[35] = system: ACHN renal
[36] = system: A498 renal
[37] = system: RPMI-8226 leukemia
[38] = system: HL-60(TB) leukemia
[39] = system: A549 NSCLC
[40] = system: MDA-MB-468 breast
[41] = system: SK-MEL-28 melanoma
[42] = system: CAKI-1 renal
[43] = system: HCC-2998 colon
[44] = system: MCF7 breast
[45] = system: SNB-75 CNS
[46] = system: BT-549 breast
[47] = system: EKVX NSCLC

## Cc1ccc2c(N)c(C(=O)N[C@H]3CCc4cc(N5CC6CCC(C5)N6)ccc4C3)sc2n1
[1]
  GI50: 277 nM
  TGI: 795 nM
[2]
  GI50: 207 nM
  TGI: 663 nM
[3]
  GI50: 111 nM
  TGI: 436 nM
[4]
  GI50: 207 nM
  TGI: 804 nM
[5]
  GI50: 88.7 nM
  TGI: 268 nM
[6]
  GI50: 349 nM
  TGI: 1270 nM
[7]
  GI50: 129 nM
  TGI: 513 nM
[8]
  GI50: 208 nM
  TGI: 660 nM
[9]
  GI50: 116 nM
  TGI: 406 nM
[10]
  GI50: 66.1 nM
  TGI: 548 nM
[11]
  GI50: 164 nM
  TGI: 443 nM
[12]
  GI50: 120 nM
  TGI: 501 nM
[13]
  GI50: 300 nM
  TGI: 1120 nM
[14]
  GI50: 386 nM
  TGI: 4350 nM
[15]
  GI50: 74.5 nM
  TGI: 1080 nM
[16]
  GI50: 164 nM
  TGI: 532 nM
[17]
  GI50: 278 nM
  TGI: 1080 nM
[18]
  GI50: 121 nM
  TGI: 421 nM
[19]
  GI50: 127 nM
  TGI: 460 nM
[20]
  GI50: 335 nM
  TGI: 919 nM
[21]
  GI50: 35.1 nM
  TGI: 105 nM
[22]
  GI50: 155 nM
  TGI: 925 nM
[23]
  GI50: 293 nM
  TGI: 2140 nM
[24]
  GI50: 99 nM
  TGI: 940 nM
[25]
  GI50: 260 nM
  TGI: 1030 nM
[26]
  GI50: 104 nM
  TGI: 605 nM
[27]
  GI50: 219 nM
  TGI: 972 nM
[28]
  GI50: 269 nM
  TGI: 992 nM
[29]
  GI50: 326 nM
  TGI: 1190 nM
[30]
  GI50: 207 nM
  TGI: 1070 nM
[31]
  GI50: 161 nM
  TGI: 298 nM
[32]
  GI50: 148 nM
  TGI: 624 nM
[33]
  GI50: 174 nM
  TGI: 487 nM
[34]
  GI50: 194 nM
  TGI: 775 nM
[35]
  GI50: 101 nM
  TGI: 707 nM
[36]
  GI50: 164 nM
  TGI: 892 nM
[37]
  GI50: 66.4 nM
  TGI: 192 nM
[38]
  GI50: 32 nM
  TGI: 108 nM
[39]
  GI50: 222 nM
  TGI: 1060 nM
[40]
  GI50: 206 nM
  TGI: 691 nM
[41]
  GI50: 269 nM
  TGI: 813 nM
[42]
  GI50: 234 nM
  TGI: 1110 nM
[43]
  GI50: 246 nM
  TGI: 751 nM
[44]
  GI50: 94.9 nM
  TGI: 1110 nM
[45]
  GI50: 219 nM
  TGI: 682 nM
[46]
  GI50: 154 nM
  TGI: 423 nM
[47]
  GI50: 251 nM
  TGI: 836 nM
